In patent publication US20210379153A1, “COMBINATION THERAPIES COMPRISING SIRP ALPHA-BASED CHIMERIC PROTEINS” (Shattuck Labs, Inc., priority 2018, published 2021):
Entries after “also recorded” stand apart in the source; their conditions may differ.

How the values were obtained:
[1] = tested on: type I interferon regulatory genes INFα1 and IFNβ1; experiment: Type I interferon response in Raji cell:macrophage co-cultures; assay type: cell-based, human
Protocol: FIG. 8D: Macrophage:Toledo lymphoma co-cultures were harvested 2 hours into phagocytosis assays in the presence of rituximab ([…]), SIRPα-Fc-CD40L ([…]), or the combination of both agents. Macrophages were isolated by CD11b+ FACS, RNA was prepared, cDNA synthesized, and gene expression (IFNa1, IFNb1, CD80, and CD86) assessed by qRT-PCR. Fold change was calculated using DDCT and values obtained from the housekeeping gene ACTB, and the corresponding values from untreated samples. […] After 2 hours, co-cultures were isolated from tissue culture vessels and were stained with a fluorescently conjugated CD11b antibody to discriminate macrophages. Cells were then assessed by flow cytometry for the co-localization of fluorescent signal from both cells types. Identical assays were set up where macrophages were pre-incubated for 1 hour with 20 μg/mL of a commercially available Fc block cocktail or with 20 μg/mL of a CD40 blocking antibody or with 5 μg/mL of a calreticulin blocking peptide. FIG. 8G: RAW 264.7-Lucia ISG cells were cultured with A20 lymphoma cells in the presence of […] of mSIRPα-Fc-CD40L, recombinant Fc-mCD40L, mSIRPα-Fc, or their combination, 1 mg/mL anti-mCD20, or the combination of mSIRPα-Fc-CD40L and anti-mCD20. After 24-hours type I interferon induced luminescence was assessed using a luminometer. The maximum luminescence (RLU) from each experiment was set to 1, and all other samples were normalized accordingly. Values from repeat experiments are shown.

Raji cells = experiment: In vitro phagocytosis of Raji cells by human macrophages; assay type: cell-based
From the text: To this end, in vitro tumor cell phagocytosis assays were established to determine whether SIRPα-Fc-CD40L enhanced macrophage-mediated phagocytosis of various tumor cell lines both alone and in combination with anti-CD20 antibodies.
Initially, a variety of CD20+ lymphoma (Toledo, Raji, and Ramos) cell lines were co-cultured with human monocyte-derived macrophages to assay the amount of phagocytosis promoted by the SIRPα(CD172a)-Fc-CD40L chimeric protein in the presence or absence of an anti-CD20 antibody.
Such synergistic effect was unexpected.
These experiments used an in vitro phagocytosis assay with human donor macrophages and several human tumor cell lines (e.g., Raji cells, a human Burkitt lymphoma tumor cell line), to test whether SIRPα-Fc-CD40L's blockade of the tumor cell antigen CD47 (“don't eat me signal”) could stimulate phagocytosis, and potentially synergize with the anti-CD20 antibody, Rituximab. FIG. 10A is a cartoon illustrating steps used in this assay.
Co-cultures of tagged Raji cells and macrophages were treated with a variety of chimeric protein and antibody combinations, including control IgGs with an anti-CD20 antibody (Rituximab), an anti-CD47 antibody (CC9, Celgene), the SIRPα(CD172a)-Fc-CD40L chimeric protein, and/or pembrolizumab (an anti-PD-1 antibody; […]/MK 3475, Merck). […] Such synergistic effect was unexpected.

CT26 tumors = experiment: Syngeneic CT26 colon tumor model vs CD40 agonist and CD47 blocking antibodies (Example 11); assay type: in vivo, mice
From the text: Mice were inoculated with CT26 tumors on day 0 and treated at a later starting date than FIG. 20A with mSIRPα-Fc-CD40L ARC on days 7, 9, and 11. […] In FIG. 20D and FIG. 20E, BALB/C mice were inoculated with WEHI3 tumors (FIG. 20D) or A20 tumors (FIG. 20E) subcutaneously on the rear flank, and then treated via IP injection with anti-CD20 or mSIRPα-Fc-CD40L on days 7, 9, and 11 (WEHI3) or days 10, 12, and 14 (A20); when tumors were established and reached approximately 57-60 mm^3. A cohort of mice were pre-treated with an interferon alpha receptor 1 (IFNAR1) blocking antibody ([…] by IP injection) on days −1, 1, and 10 (WEHI3) or on days −1, 1, and 13 (A20). […] Samples were normalized to untreated animals.
Implanted CT26 tumors were allowed to grow to […] before treatment was initiated with a fixed regimen of two doses of either a CD40 agonist antibody (clone FGK4.5), a CD47 blocking antibody (clone MIAP301), a combination of the two antibodies, or the murine SIRPα-Fc-CD40L chimeric protein.

[2] = tested on: human donor red blood cells (RBCs); experiment: In vitro hemolysis assay, human red blood cells; assay type: cell-based
Protocol: FIG. 22B is a graph showing RBCs and test agents that were incubated at 37° C. for 24 hours and then the media was assessed at OD490 for changes in absorbance due to hemoglobin being released from lysing RBCs. […] FIG. 22D are graphs showing that peripheral blood was isolated from mice receiving three IP doses (300 μg) of the murine SIRPα-Fc-CD40L surrogate (arrows). Cell populations were assessed by flow cytometry and included CD20+ B cells, CD110+, CD4+/CD11c+, and CD8+/CD11c+ dendritic cells.
(§1) However, the in vitro systems used to test this question have significant limitations, including a complete lack of macrophages in the test system.

[3] = Repeat-dose safety and activity study in cynomolgus macaques; assay type: in vivo
Protocol: FIG. 21 is a graph showing cynomolgus macaques that were treated with vehicle, or 0.1, 1, 10, and 40 mg/kg of SIRPα-Fc-CD40L. Blood chemistry analysis assessed peripheral erythrocyte counts, hemoglobin levels, and hematocrit. In addition, the fold-change in lymphocyte count from pre-dose to 24 hours post-dose is shown.
The experiments of this example tested the safety and activity of the human SIRPα-Fc-CD40L chimeric protein following repeat doses in cynomolgus macaques. Briefly, naïve cynomolgus macaques were administered the human SIRPα-Fc-CD40L chimeric protein by intravenous infusion every week, for five consecutive weeks, at doses of 0.1, 1, 10 and 40 mg/kg. Standard hematology and clinical chemistry parameters were collected before and after each dose.
Receptor occupancy was evaluated on circulating CD40+ lymphocytes.

[4] = tested on: MCF7 (low Her2-expressing breast cancer cell line); experiment: Macrophage engulfment of MCF7 cells; assay type: cell-based, human; conditions: monotherapy
[5] = tested on: cynomolgus macaque erythrocytes; experiment: In vitro hemolysis, cynomolgus macaque erythrocytes; assay type: cell-based
From the text: as §1

tumors = experiment: In vivo tumor model, SIRPα-Fc-OX40L with checkpoint antibodies (Example 14); set-up: species or system mice
Protocol: The in vivo ability of combinations of the SIRPα-Fc-OX40L chimeric protein with anti-CTLA-4 antibodies or the SIRPα-Fc-OX40L chimeric protein with anti-PD-1 antibodies to target and treat tumors was determined.

[6] = combination with anti-CTLA-4 antibody
[7] = combination with anti-PD-1 antibody

## SIRPα-Fc-CD40L: generic name of the SIRPαECD-Fc-CD40LECD chimeric protein; human or murine version according to the experiment
[1]; combination with anti-CD20 antibody
  IFNβ protein synthesis: significantly greater
[1]; combination with anti-CD20 antibody vs either component alone
  RNA expression of INFα1: significantly greater
[1]; combination with anti-CD20 antibody vs sum of alone treatments
  RNA expression of IFNβ1: greater than the sum
Raji cells; Fc receptors on the macrophages pre-blocked
  synergy in phagocytosis with anti-CD20 antibody: synergy was lost
Raji cells; combination with an anti-CD20 antibody, among treatment groups
  phagocytosis activity by flow cytometry: greatest phagocytosis activity
Raji cells; combination with anti-CD20 antibody (Rituximab), listed as SIRPα(CD172a)-Fc-CD40L
  macrophage engulfment (phagocytosis) of tumor cells: most effective; also recorded: effective
Raji cells; combination with anti-CD20 antibody vs chimeric protein-alone and antibody-alone treatments
  rate of tumor cells engulfed by macrophages (phagocytosis index): greater than the sum
Raji cells; combination with anti-CD20 antibody, CD40 pre-blocked
  stimulation of phagocytosis: remained the same
CT26 tumors; 13 days following tumor inoculation
  proportion of AH1-tetramer positive CD8+ T cells in tumor and spleen: increase in the proportion
CT26 tumors; antibody-mediated depletion of CD4+ cells
  therapeutic benefit with CD4 depletion: partially required
CT26 tumors; antibody-mediated depletion of CD8+ cells
  therapeutic benefit with CD8 depletion: completely eliminated the therapeutic benefit
[2]
  hemolysis: did not reveal evidence of hemolysis
[3]; before and after each dose
  total number of lymphocytes (episodic fluctuation): did not depart from the upper and lower range of normal
[3]; cynomolgus monkey, in vivo
  number of CD40+ cells in the peripheral blood: dose-dependent decrease
[3]; following each infusion
  serum cytokines/chemokines (CCL2, CXCL9, CXCL10, IL-6, IL-15, IL-17A, IL-23): dose-dependent increases
[4]
  phagocytosis: demonstrated monotherapy activity
[5]
  hemolysis: did not reveal evidence of hemolysis
tumors; combination of chimeric protein and antibody
  rejection of primary tumor: able to reject primary tumor
tumors; [6]
  survival: any survivors by the sixteenth day
  tumor size: effective in reducing tumor size
tumors; [7]
  survival: any survivors by the sixteenth day
  tumor size: effective in reducing tumor size
